Among the data in patent US12150995B2, “IRAK degraders and uses thereof” (Kymera Therapeutics, Inc., priority 2020, dated 2024) are DC50 values, retold here.

The experiment addresses T1, IRAK4 (Homo sapiens, UniProt Q9NWZ3).
T1 construct: endogenous in cells; host or cells: OCI-LY10
T1 sequence (Q9NWZ3 1-460): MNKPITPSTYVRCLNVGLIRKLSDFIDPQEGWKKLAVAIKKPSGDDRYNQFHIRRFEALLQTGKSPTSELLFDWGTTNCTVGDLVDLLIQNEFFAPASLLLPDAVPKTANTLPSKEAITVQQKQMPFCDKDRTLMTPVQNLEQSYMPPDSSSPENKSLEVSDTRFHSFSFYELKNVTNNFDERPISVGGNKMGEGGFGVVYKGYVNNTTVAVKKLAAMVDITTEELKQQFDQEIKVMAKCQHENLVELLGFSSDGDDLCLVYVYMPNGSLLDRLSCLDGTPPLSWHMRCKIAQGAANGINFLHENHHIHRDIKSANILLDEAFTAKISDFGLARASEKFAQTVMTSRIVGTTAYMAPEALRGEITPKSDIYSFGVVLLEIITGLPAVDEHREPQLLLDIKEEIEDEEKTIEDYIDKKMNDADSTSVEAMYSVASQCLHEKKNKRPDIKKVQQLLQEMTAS
Nature of the experiment: IRAK4 MSD Degradation in OCI-LY10. The format is cell-based. As to conditions: OCI-LY10 cells, Meso Scale Discovery, incubated 4 to 24 hours. The procedure, abridged:
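IRAK4 degradation was quantified by Meso Scale electrochemiluminescence (anti-IRAK4 capture and detection antibodies) in lysates of treated OCI-LY10 cells. Compounds were dosed at 8 concentrations (1:3 dilutions, top 1 to 10 μM) for 4 to 24 h; DC50 derived by three-parameter logistic fitting.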

The term DC50 denotes the concentration giving 50% degradation. Low readings indicate a more potent degrader, high ones a less potent degrader. With `CC(C)c1cc2nn([C@H]3CC[C@H](CN4CCN(c5cccc6c5n(C)c(=O)n6C5CCC(=O)NC5=O)CC4)CC3)cc2cc1NC(=O)c1cccc(C(F)(F)F)n1` (some centres unmarked) [I-397], the DC50 is under 10 nM.

`COc1ccc2c(c1C1CCN(C[C@H]3CC[C@H](n4cc5cc(NC(=O)c6cccc(C(F)(F)F)n6)c(C#N)cc5n4)CC3)CC1)n(C)c(=O)n2C1CCC(=O)NC1=O` (some centres unmarked) [I-205]: the DC50 is under 10 nM.

Take `COc1cc2nc([C@H]3C[C@H](CN4CCC(c5cccc6c5n(C)c(=O)n6C5CCC(=O)NC5=O)CC4)C3)sc2cc1NC(=O)c1cccc(C(F)(F)F)n1` (some centres unmarked) [I-235]: the DC50 is 50 to 100 nM.

`CSc1cc2nn([C@H]3CC[C@H](CN4CCN(c5cccc6c5n(C)c(=O)n6C5CCC(=O)NC5=O)CC4)CC3)cc2cc1NC(=O)c1cccc(C(F)(F)F)n1` (some centres unmarked) [I-307] gave a DC50 of under 10 nM.

The compound `COc1cc2nn([C@H]3CC[C@H](CN4CCN(c5cc(F)cc6c(N7CCC(=O)NC7=O)cncc56)CC4)CC3)cc2cc1NC(=O)c1cccc(C(F)(F)F)n1` [I-413] returned a DC50 of under 10 nM.

The compound `Cn1c(=O)n(C2CCC(=O)NC2=O)c2cccc(C3CCN(C[C@H]4CC[C@H](n5cc6cc(NC(=O)c7cncc(C#N)c7)c(N7C[C@H]8C[C@@H]7CO8)cc6n5)CC4)CC3)c21` (some centres unmarked) [I-212] gave a DC50 of over 200 nM.

In the case of `CC(C)(O)c1cc2nn([C@H]3CC[C@H](CN4C[C@H]5C[C@@H]4CN5c4cccc5c(N6CCC(=O)NC6=O)cncc45)CC3)cc2cc1NC(=O)c1cccc(C(F)(F)F)n1` [I-229], the DC50 was under 10 nM.

Regarding `COc1cc2nn([C@H]3CC[C@H](CN4CCC(c5cc(F)cc6c5n(C)c(=O)n6C5CCC(=O)NC5=O)CC4)CC3)cc2cc1NC(=O)c1cccc(C(F)(F)F)n1` (some centres unmarked) [I-52], the DC50 was under 10 nM.

In the case of `COc1cc2nn([C@H]3CC[C@H](CN4CCC(c5ccc6c(c5C)n(C)c(=O)n6C5CCC(=O)NC5=O)CC4)CC3)cc2cc1NC(=O)c1cccc(C(F)(F)F)n1` (some centres unmarked) [I-173], the DC50 is under 10 nM.

The compound `CC(C)Nc1cc(-c2ccc3cc(C#N)cnn23)ncc1C(=O)N[C@H]1CC[C@H](CN(C)C2CCN(c3cccc4c3n(C)c(=O)n4C3CCC(=O)NC3=O)CC2)CC1` (some centres unmarked) [I-179] showed a DC50 of under 10 nM.

For the compound `Cn1c(=O)n(C2CCC(=O)NC2=O)c2cccc(N3CCN(C[C@H]4CC[C@H](n5cc6cc7nc(-c8cccc(C(F)(F)F)n8)oc(=O)c7cc6n5)CC4)CC3)c21` (some centres unmarked) [I-406, 3-[3-methyl-2-oxo-4-[4-[[4-[8-oxo-6-[6-(trifluoromethyl)-2-pyridyl]pyrazolo[3,4-g] [3,1]benzoxazin-2-yl]cyclohexyl]methyl]piperazin-1-yl]benzimidazol-1-yl]piperidine-2,6-dione], the DC50 was in the range of 10 to 50 nM.

The compound `Cc1cc2nn([C@H]3CC[C@H](CN4CCN(c5cccc6c5n(C)c(=O)n6C5CCC(=O)NC5=O)CC4(C)C)CC3)cc2cc1NC(=O)c1cccc(C(F)(F)F)n1` (some centres unmarked) [I-305] registered a DC50 of 10 to 50 nM.

For the compound `Cn1c(=O)n(C2CCC(=O)NC2=O)c2cccc(N3CCN(C[C@H]4CC[C@H](n5cc6cc(NC(=O)c7cccc(C(F)(F)F)n7)c(S(C)(=O)=O)cc6n5)CC4)CC3)c21` (some centres unmarked) [I-422], the DC50 was under 10 nM.

Compound `COc1ccc2c(c1C1CCN(C[C@H]3CC[C@H](n4cc5cc(NC(=O)c6cncc(Cl)c6)ccc5n4)CC3)CC1)n(C)c(=O)n2C1CCC(=O)NC1=O` (some centres unmarked) [I-116] yielded a DC50 of 100 to 200 nM.

Take `COc1cc2nn([C@H]3CC[C@H](CN4CCC(c5c(C)ccc6c5n(C)c(=O)n6C5CCC(=O)NC5=O)CC4)CC3)cc2cc1NC(=O)c1cncc(Cl)c1` (some centres unmarked) [I-110]: the DC50 is under 10 nM.

In turn, `CN(CCNc1cccc2c1C(=O)N(C1CCC(=O)NC1=O)C2=O)C[C@H]1CC[C@H](c2nc3cc(C(C)(C)O)c(NC(=O)c4cccc(C(F)(F)F)n4)cc3s2)CC1` (some centres unmarked) [I-492] showed a DC50 of 10 to 50 nM.

Compound `Cn1c(=O)n(C2CCC(=O)NC2=O)c2c(F)ccc(C3CCN(C[C@H]4CC[C@H](n5cc6cc(NC(=O)c7cccc(C(F)(F)F)n7)c(F)cc6n5)CC4)CC3)c21` (some centres unmarked) [I-25] returned a DC50 of under 10 nM.

`COc1cncc(C(=O)Nc2cc3sc([C@H]4CC[C@H](CN(C)CCCNc5cccc6c5C(=O)N(C5CCC(=O)NC5=O)C6=O)CC4)nc3cc2OC)c1` (some centres unmarked) [I-450]: the DC50 was over 200 nM.

In turn, `COc1cc2nn([C@H]3CC[C@H](CN4[C@@H]5C[C@H]4CN(c4cccc6c4n(C)c(=O)n6C4CCC(=O)NC4=O)C5)CC3)cc2cc1NC(=O)c1cccc(C(F)(F)F)n1` (some centres unmarked) [I-158] gave a DC50 of under 10 nM.

For the compound `COc1cc2nn([C@H]3CC[C@H](CN(C)C4CCN(c5ccc6c(N7CCC(=O)NC7=O)cncc6c5)CC4)CC3)cc2cc1NC(=O)c1cccc(C(F)(F)F)n1` [I-320], the DC50 was under 10 nM.

For `CC(C)(O)c1cc2nc([C@H]3CC[C@H](CN4CC5(CC(CCNc6cccc7c6C(=O)N(C6CCC(=O)NC6=O)C7=O)C5)C4)CC3)sc2cc1NC(=O)c1cncc(C#N)c1` (some centres unmarked) [I-461], the DC50 is 10 to 50 nM.

Consider `Cn1c(=O)n(C2CCC(=O)NC2=O)c2cccc(N3CCN(C[C@H]4CC[C@H](n5cc6cc(NC(=O)c7cccc(C(F)(F)F)n7)c(C#N)cc6n5)CC4)CC3)c21` (some centres unmarked) [I-363], for which the DC50 is under 10 nM.

Consider `CC(C)Nc1cc(-n2ccc3cc(F)cnc32)ncc1C(=O)N[C@H]1CC[C@H](CN2CCN(c3cccc4c3n(C)c(=O)n4C3CCC(=O)NC3=O)CC2)CC1` (some centres unmarked) [I-290], for which the DC50 lay within 10 to 50 nM.
